Data: ChEMBL document CHEMBL1128430, “1,1-Bisphosphonate squalene synthase inhibitors: interplay between the isoprenoid subunit and the diphosphate surrogate” (J Med Chem, 1995)
Blank lines part the entries; values can stand above or below the compound they belong to. Calls of active or inactive are those of the source. No cut-off for these calls is given here.

Key:
Squalene synthase = target: T1, Squalene synthase (Rattus norvegicus, UniProt Q02769); assay: Inhibition rat liver microsomal squalene synthase
T1 sequence (Q02769 whole entry): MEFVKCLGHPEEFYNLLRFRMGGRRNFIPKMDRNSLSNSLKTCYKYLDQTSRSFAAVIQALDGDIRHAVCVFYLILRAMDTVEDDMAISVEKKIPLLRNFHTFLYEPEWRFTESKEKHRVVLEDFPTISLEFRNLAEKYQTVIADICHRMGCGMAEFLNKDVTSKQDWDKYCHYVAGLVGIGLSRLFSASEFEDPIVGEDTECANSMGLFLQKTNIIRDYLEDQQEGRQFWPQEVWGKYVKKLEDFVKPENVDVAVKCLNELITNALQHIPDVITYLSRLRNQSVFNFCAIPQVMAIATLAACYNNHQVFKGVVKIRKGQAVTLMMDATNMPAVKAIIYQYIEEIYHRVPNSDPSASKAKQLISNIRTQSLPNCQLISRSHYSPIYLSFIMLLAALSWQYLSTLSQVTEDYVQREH

[1] = target: T2, Squalene synthase (Rattus norvegicus) (UniProt Q02769); conditions: 30 mg/kg
T2 sequence (whole entry): T1 sequence (Q02769 whole entry)

[2] = target: T2, Squalene synthase (Rattus norvegicus); assay: Effective dose to inhibit rat liver microsomal Squalene Synthase was determined by intravenous administration
[3] = target: T2, Squalene synthase (Rattus norvegicus); assay: Effective dose to inhibit rat liver microsomal Squalene Synthase was determined by peroral administration at a dose of 30 mg/kg; In active; assay type: organism-based; design: dose 30 mg/kg
[4] = target: T2, Squalene synthase (Rattus norvegicus); assay: Effective dose to inhibit rat liver microsomal Squalene synthase was determined by peroral administration at a dose of 15 mg/kg; inactive; assay type: organism-based; design: dose 15 mg/kg
[5] = target: T2, Squalene synthase (Rattus norvegicus); assay: Effective dose to inhibit rat liver microsomal Squalene Synthase was determined by peroral administration
[6] = target: T2, Squalene synthase (Rattus norvegicus); assay: Effective dose to inhibit rat liver microsomal Squalene Synthase was determined by peroral administration at 15 mg/kg dose; assay type: organism-based; design: dose 15 mg/kg

Compound: CC(C)=CCC/C(C)=C/CCCC(C(=O)O)P(=O)(O)O (configuration not stated)
- IC50 (Squalene synthase): 1650 nM

Compound: CC(C)=CCC/C(C)=C/CC/C(C)=C/CC(P(=O)(O)O)P(=O)(O)O
- IC50 (Squalene synthase): 32.4 nM

Compound: COCP(=O)(O)C(CCCc1ccc(-c2ccccc2)cc1)P(=O)(O)O (configuration not stated)
- IC50 (Squalene synthase): 14.8 nM

Compound: CC(C)=CCC/C(C)=C/CC/C(C)=C/CCCC(P(C)(=O)O)P(=O)(O)O (configuration not stated)
- IC50 (Squalene synthase): 12.9 nM

Compound: CP(=O)(O)C(CCCc1ccc(-c2ccccc2)cc1)P(=O)(O)O (configuration not stated)
- IC50 (Squalene synthase): 490 nM

Compound: COCP(=O)(O)C(CCC/C=C(\C)CC/C=C(\C)CCC=C(C)C)P(=O)(O)O (configuration not stated)
- IC50 (Squalene synthase): 6.5 nM

Compound: O=P(O)(O)C(CCCc1ccc(-c2ccccc2)cc1)P(=O)(O)CO (configuration not stated)
- IC50 (Squalene synthase): 23.9 nM

Compound: CC(C)=CCC/C(C)=C/CC/C(C)=C/CC(P(C)(=O)O)P(=O)(O)O (configuration not stated)
- IC50 (Squalene synthase): 106 nM

Compound: CC(C)=CCC/C(C)=C/CC/C(C)=C/CCCC(C(=O)O)P(=O)(O)O (configuration not stated)
- IC50 (Squalene synthase): 880 nM

Compound: CC(C)=CCCCC(P(=O)(O)O)P(=O)(O)O
- IC50 (Squalene synthase): 6600 nM

Compound: CC(C)=CCC/C(C)=C/CCCC([PH](=O)O)P(=O)(O)O (configuration not stated)
- IC50 (Squalene synthase): 4 nM

Compound: CC(C)=CCC/C(C)=C/CC/C(C)=C/CCCC(P(=O)(O)O)P(=O)(O)CO (configuration not stated)
- IC50 (Squalene synthase): 4.7 nM

Compound: O=C(O)C(CCCc1ccc(-c2ccccc2)cc1)P(=O)(O)O (configuration not stated)
- IC50 (Squalene synthase): 2200 nM

Compound: CC(C)=CCC/C(C)=C/CC(P(C)(=O)O)P(=O)(O)O (configuration not stated)
- IC50 (Squalene synthase): 8600 nM

Second part, the compound after the results:

- IC50 (Squalene synthase): 605 nM
Compound: CC(C)=CCC/C(C)=C/CCCCC(P(C)(=O)O)P(=O)(O)O (configuration not stated)

- IC50 (Squalene synthase): 13.1 nM
Compound: COCP(=O)(O)C(CCC/C=C(\C)CCC=C(C)C)P(=O)(O)O (configuration not stated)

- IC50 (Squalene synthase): 77.7 nM
Compound: CC(C)=CCC/C(C)=C/CCC(P(=O)(O)O)P(=O)(O)O

- IC50 (Squalene synthase): 374 nM
Compound: CC(C)=CCC/C(C)=C/CCCCCCC(P(C)(=O)O)P(=O)(O)O (configuration not stated)

- inhibition [1]: 25%
- IC50 (Squalene synthase): 17.6 nM
Compound: CC(C)=CCC/C(C)=C/CCCCCCC(P(=O)(O)O)P(=O)(O)O

- ED50 [2]: 0.05 mg/kg
- IC50 (Squalene synthase): 4.2 nM
- ED50 [3]: inactive
Compound: CC(C)=CCC/C(C)=C/CCCCCCCC(P(=O)(O)O)P(=O)(O)O

- IC50 (Squalene synthase): 35.5 nM
- ED50 [4]: inactive
Compound: CC(C)=CCC/C(C)=C/CC(P(=O)(O)O)P(=O)(O)O

- ED50 [2]: 0.04 mg/kg
- IC50 (Squalene synthase): 2.5 nM
- ED50 [5]: 1.1 mg/kg
Compound: CC(C)=CCC/C(C)=C/CCCCCC(P(=O)(O)O)P(=O)(O)O

- IC50 (Squalene synthase): 6.5 nM
Compound: CC(C)=CCC/C(C)=C/CC/C(C)=C/CCCCC(P(C)(=O)O)P(=O)(O)O (configuration not stated)

- IC50 (Squalene synthase): 30.7 nM
Compound: CC(C)=CCC/C(C)=C/CCCCCC(P(C)(=O)O)P(=O)(O)O (configuration not stated)

- IC50 (Squalene synthase): 8.7 nM
Compound: CC(C)=CCC/C(C)=C/CCCCCCCC(P(C)(=O)O)P(=O)(O)O (configuration not stated)

- IC50 (Squalene synthase): 38.7 nM
Compound: CC(C)=CCC/C(C)=C/CCCC(P(=O)(O)O)P(=O)(O)CO (configuration not stated)

- IC50 (Squalene synthase): 81 nM
Compound: CC(C)=CCC/C(C)=C/CCCC(P(C)(=O)O)P(=O)(O)O (configuration not stated)

- IC50 (Squalene synthase): 2.6 nM
Compound: CC(C)=CCC/C(C)=C/CCCCC(P(=O)(O)O)P(=O)(O)O

- ED50 [2]: 0.13 mg/kg
- inhibition [6]: 26%
- IC50 (Squalene synthase): 11.8 nM
Compound: CC(C)=CCC/C(C)=C/CC/C(C)=C/CCCCCCC(P(=O)(O)O)P(=O)(O)O
